Experimental data from PubChem BioAssay AID256 (DTP/NCI, 2004).
Several values for one entry are separate records, joined by “and”; a condition that tells them apart may be missing. Identical values can stand only once. Toxic doses and inconclusive results are not listed. How the source made its calls: active means survival T/C of 150% or more; inactive means T/C below 125% in these data.

Test system: CD2F1 mice, L1210 leukemia ip, survival T/C
Assay: NCI In Vivo Anticancer Drug Screen. Data for tumor model L1210 Leukemia (intraperitoneal) in CD2F1 (CDF1) mice
Conditions: higher = longer survival
Method in brief: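 Implant tumor; dose compound or vehicle; measure endpoint in both groups; report treated divided by control.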

[1] = endpoint: mean survival time, dose: 100.0 mg/kg/injection, schedule: Q01DX009 (ip), vehicle: Klucel (hydroxypropylcellulose) (HPC)
[2] = endpoint: mean survival time, dose: 200.0 mg/kg/injection, schedule: Q01DX009 (ip), vehicle: Klucel (hydroxypropylcellulose) (HPC)
[3] = endpoint: mean survival time, dose: 400.0 mg/kg/injection, schedule: Q01DX009 (ip), vehicle: Klucel (hydroxypropylcellulose) (HPC)
[4] = endpoint: mean survival time, dose: 100.0 mg/kg/injection, schedule: Q04DX003 (ip), vehicle: saline with Tween-80
[5] = endpoint: mean survival time, dose: 200.0 mg/kg/injection, schedule: Q04DX003 (ip), vehicle: saline with Tween-80
[6] = endpoint: mean survival time, dose: 400.0 mg/kg/injection, schedule: Q04DX003 (ip), vehicle: saline with Tween-80
[7] = endpoint: mean survival time, dose: 100.0 mg/kg/injection, schedule: Q01DX009 (ip), vehicle: saline with Tween-80
[8] = endpoint: mean survival time, dose: 100.0 mg/kg/injection, schedule: Q04DX002 (ip), vehicle: saline with Tween-80
[9] = endpoint: mean survival time, dose: 200.0 mg/kg/injection, schedule: Q04DX002 (ip), vehicle: saline with Tween-80
[10] = endpoint: mean survival time, dose: 400.0 mg/kg/injection, schedule: Q04DX002 (ip), vehicle: saline with Tween-80
[11] = endpoint: mean survival time, dose: 100.0 mg/kg/injection, schedule: Q04DX003 (ip), vehicle: Klucel (hydroxypropylcellulose) (HPC)
[12] = endpoint: mean survival time, dose: 200.0 mg/kg/injection, schedule: Q04DX003 (ip), vehicle: Klucel (hydroxypropylcellulose) (HPC)
[13] = endpoint: mean survival time, dose: 200.0 mg/kg/injection, schedule: Q01DX009 (ip), vehicle: saline with Tween-80
[14] = endpoint: mean survival time, dose: 400.0 mg/kg/injection, schedule: Q01DX009 (ip), vehicle: saline with Tween-80
[15] = endpoint: mean survival time, dose: 100.0 mg/kg/injection, schedule: Q01DX001 (ip), vehicle: saline
[16] = endpoint: mean survival time, dose: 200.0 mg/kg/injection, schedule: Q01DX001 (ip), vehicle: saline
[17] = endpoint: mean survival time, dose: 400.0 mg/kg/injection, schedule: Q01DX001 (ip), vehicle: saline
[18] = endpoint: mean survival time, dose: 12.5 mg/kg/injection, schedule: Q04DX003 (ip), vehicle: saline

Measured: T/C

O=C1/C(=C/c2ccccc2[N+](=O)[O-])CCc2ccccc21
inactive: [1] 97 % of control | [2] 91 % of control | [3] 96 % of control

CCOC(CS(=O)(=O)CC(N)=O)OCC
inactive: [4] 98 % of control | [5] 93 % of control | [6] 104 % of control

CC(C)(C)CC(C)(C)SSc1n[nH]c(=S)s1
inactive: endpoint: mean survival time, dose: 2.5 mg/kg/injection, schedule: Q04DX003 (ip), vehicle: Klucel (hydroxypropylcellulose) (HPC) 102 % of control | endpoint: mean survival time, dose: 5.0 mg/kg/injection, schedule: Q04DX003 (ip), vehicle: Klucel (hydroxypropylcellulose) (HPC) 101 % of control | endpoint: mean survival time, dose: 10.0 mg/kg/injection, schedule: Q04DX003 (ip), vehicle: Klucel (hydroxypropylcellulose) (HPC) 98 % of control and 101 % of control

Oc1ccc(C=NCCN=Cc2ccc(O)cc2O)c(O)c1
inactive: endpoint: mean survival time, dose: 8.0 mg/kg/injection, schedule: Q01DX009 (ip), vehicle: saline with Tween-80 98 % of control | endpoint: mean survival time, dose: 12.0 mg/kg/injection, schedule: Q01DX009 (ip), vehicle: saline with Tween-80 87 % of control | endpoint: mean survival time, dose: 18.0 mg/kg/injection, schedule: Q01DX009 (ip), vehicle: saline with Tween-80 92 % of control | endpoint: mean survival time, dose: 25.0 mg/kg/injection, schedule: Q01DX009 (ip), vehicle: saline with Tween-80 114 % of control and 96 % of control | [7] 87 % of control | [4] 87 % of control | [6] 88 % of control

O=C1OC(c2ccccc2)(c2ccccc2)c2cccc3cccc1c23
inactive: [4] 93 % of control | [6] 86 % of control

CC(N(N=O)c1cccc(Cl)c1)S(=O)(=O)O (stereo unspecified)
inactive: [8] 101 % of control | [9] 97 % of control | [10] 86 % of control

C(=N\Nc1nc2ccccc2s1)/c1ccncc1
inactive: [11] 90 % of control | [12] 92 % of control | endpoint: mean survival time, dose: 400.0 mg/kg/injection, schedule: Q04DX003 (ip), vehicle: Klucel (hydroxypropylcellulose) (HPC) 90 % of control

O=C(Cc1nc2ccccc2[nH]c1=O)N/N=C/c1ccc2c(c1)CCC2
inactive: [7] 92 % of control | [13] 88 % of control | [14] 88 % of control

COc1ccc2c(c1C)Cc1ccccc1C2=O
inactive: [4] 90 % of control | [5] 89 % of control | [6] 97 % of control

CCC(=O)O/N=C(\c1ccccc1)c1cccnc1
inactive: endpoint: mean survival time, dose: 100.0 mg/kg/injection, schedule: Q01DX001 (ip), vehicle: other 113 % of control | endpoint: mean survival time, dose: 200.0 mg/kg/injection, schedule: Q01DX001 (ip), vehicle: other 98 % of control | endpoint: mean survival time, dose: 400.0 mg/kg/injection, schedule: Q01DX001 (ip), vehicle: other 101 % of control

NCc1ccc([N+](=O)[O-])cc1Cl
inactive: endpoint: mean survival time, dose: 50.0 mg/kg/injection, schedule: Q01DX009 (ip), vehicle: saline with Tween-80 94 % of control | [7] 94 % of control

CSc1nc(N)n2nccc2n1
inactive: endpoint: median survival time, dose: 50.0 mg/kg/injection, schedule: Q01DX005 (ip), vehicle: saline 102 % of control | endpoint: median survival time, dose: 100.0 mg/kg/injection, schedule: Q01DX005 (ip), vehicle: saline 95 % of control | endpoint: median survival time, dose: 200.0 mg/kg/injection, schedule: Q01DX005 (ip), vehicle: saline 95 % of control

O=S(=O)(OCCCCCCOS(=O)(=O)c1cccnc1)c1cccnc1
inactive: endpoint: mean survival time, dose: 10.0 mg/kg/injection, schedule: Q04DX002 (ip), vehicle: saline with Tween-80 107 % of control

O=C1C2C3C=CC(O3)C2C(=O)N1Cc1ccncc1 (stereo unspecified)
inactive: [15] 108 % of control | [16] 100 % of control | [17] 101 % of control

CCOC(=O)/C=C/C(=O)O.[Zn+2]
inactive: endpoint: mean survival time, dose: 3.12 mg/kg/injection, schedule: Q04DX003 (ip), vehicle: saline 100 % of control | endpoint: mean survival time, dose: 6.25 mg/kg/injection, schedule: Q04DX003 (ip), vehicle: saline 100 % of control | [18] 100 % of control

O=S(=O)(O)c1ccc(N=Nc2cc(O)cc3ccccc23)cc1
inactive: endpoint: mean survival time, dose: 6.25 mg/kg/injection, schedule: Q01DX001 (ip), vehicle: saline 96 % of control | endpoint: mean survival time, dose: 12.5 mg/kg/injection, schedule: Q01DX001 (ip), vehicle: saline 92 % of control | endpoint: mean survival time, dose: 25.0 mg/kg/injection, schedule: Q01DX001 (ip), vehicle: saline 88 % of control | [15] 86 % of control | [16] 88 % of control | [17] 96 % of control

O=C(COc1ccc(F)cc1F)OC(=O)COc1ccc(F)cc1F
inactive: [8] 92 % of control | [9] 89 % of control | [10] 89 % of control

CCOC(=O)Nc1cc2c(ncn2-c2ccccc2)c(N)n1
inactive: endpoint: mean survival time, dose: 100.0 mg/kg/injection, schedule: Q01DX001 (ip), vehicle: Klucel (hydroxypropylcellulose) (HPC) 98 % of control | endpoint: mean survival time, dose: 200.0 mg/kg/injection, schedule: Q01DX001 (ip), vehicle: Klucel (hydroxypropylcellulose) (HPC) 96 % of control

CCCCCCCCCCOc1ccc(Cl)cc1Cl
inactive: [8] 101 % of control | [9] 101 % of control | [10] 90 % of control

O=C1c2ccccc2-c2cc([N+](=O)[O-])c(Cl)cc21
inactive: endpoint: mean survival time, dose: 50.0 mg/kg/injection, schedule: Q04DX003 (ip), vehicle: Klucel (hydroxypropylcellulose) (HPC) 91 % of control | [11] 96 % of control | [12] 94 % of control

Cc1ccc(NC(=O)Oc2cc(C)c(Cl)cc2C)c([N+](=O)[O-])c1
inactive: [1] 106 % of control | [2] 95 % of control | [3] 92 % of control

OCC1OC(Sc2cc(Cl)ccc2Cl)C(O)C(O)C1O (stereo unspecified)
inactive: [15] 103 % of control | [16] 100 % of control | [17] 100 % of control

O=CN(O)CC(=O)O.[Cu]
inactive: endpoint: mean survival time, dose: 3.12 mg/kg/injection, schedule: Q01DX009 (ip), vehicle: acetone 95 % of control | endpoint: mean survival time, dose: 6.25 mg/kg/injection, schedule: Q01DX009 (ip), vehicle: acetone 101 % of control | [18] 100 % of control

CCCCC(NC(=O)CCl)C(=O)O (stereo unspecified)
inactive: [8] 95 % of control | [9] 103 % of control

COC(=O)C1CC23C=CCN4CC(C2C)C2(c5ccccc5NC12)C43 (stereo unspecified)
inactive: endpoint: mean survival time, dose: 8.0 mg/kg/injection, schedule: Q01DX001 (ip), vehicle: saline 102 % of control | endpoint: mean survival time, dose: 16.0 mg/kg/injection, schedule: Q01DX001 (ip), vehicle: saline 96 % of control | endpoint: mean survival time, dose: 32.0 mg/kg/injection, schedule: Q01DX001 (ip), vehicle: saline 102 % of control | endpoint: mean survival time, dose: 64.0 mg/kg/injection, schedule: Q01DX001 (ip), vehicle: saline 101 % of control

O=C1CCCN1c1ccc([N+](=O)[O-])cc1
inactive: endpoint: mean survival time, dose: 12.5 mg/kg/injection, schedule: Q04DX002 (ip), vehicle: saline with Tween-80 102 % of control | endpoint: mean survival time, dose: 25.0 mg/kg/injection, schedule: Q04DX002 (ip), vehicle: saline with Tween-80 102 % of control | endpoint: mean survival time, dose: 50.0 mg/kg/injection, schedule: Q04DX002 (ip), vehicle: saline with Tween-80 102 % of control | endpoint: mean survival time, dose: 100.0 mg/kg/injection, schedule: Q01DX001 (ip), vehicle: saline with Tween-80 110 % of control | [7] 98 % of control | endpoint: mean survival time, dose: 200.0 mg/kg/injection, schedule: Q01DX001 (ip), vehicle: saline with Tween-80 104 % of control | [13] 98 % of control | endpoint: mean survival time, dose: 400.0 mg/kg/injection, schedule: Q01DX001 (ip), vehicle: saline with Tween-80 101 % of control | [14] 106 % of control
